From ChEMBL document CHEMBL1201862, “PubChem BioAssay data set” (2004)
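Values below derive from 48-hour exposures of cells grown in 96-well plates, with endpoints linearly interpolated between the two concentrations bracketing the appropriate inhibition level. GI50 marks 50% less growth.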 Activity calls are given as the source filed them. No stated cut-off is given here; in the data, active = GI50 up to about 1.1 µM and inactive = higher.

Legend:
Experiment in all cases: NCI anticancer screen, dose series, 48 h
[1] = tested on: 786-0
[2] = tested on: A498
[3] = tested on: A549
[4] = tested on: ACHN
[5] = tested on: CAKI-1
[6] = tested on: CCRF-CEM
[7] = tested on: COLO 205
[8] = tested on: DLD-1
[9] = tested on: DMS-114
[10] = tested on: DMS-273
[11] = tested on: EKVX
[12] = tested on: HCC 2998
[13] = tested on: HCT-116
[14] = tested on: HCT-15
[15] = tested on: HL-60
[16] = tested on: HOP-18
[17] = tested on: HOP-62
[18] = tested on: HT-29
[19] = tested on: IGROV-1
[20] = tested on: K562
[21] = tested on: KM-20L2
[22] = tested on: KM12
[23] = tested on: LOX IMVI
[24] = tested on: LXFL 529
[25] = tested on: M14
[26] = tested on: M19-MEL
[27] = tested on: MOLT-4
[28] = tested on: Malme-3M
[29] = tested on: NCI-H226
[30] = tested on: NCI-H23
[31] = tested on: NCI-H460
[32] = tested on: NCI-H522
[33] = tested on: OVCAR-3
[34] = tested on: OVCAR-4
[35] = tested on: OVCAR-5
[36] = tested on: OVCAR-8
[37] = tested on: RPMI-8226
[38] = tested on: RXF 631
[39] = tested on: SF-268
[40] = tested on: SF-295
[41] = tested on: SK-MEL-28
[42] = tested on: SK-MEL-2
[43] = tested on: SK-MEL-5
[44] = tested on: SK-OV-3
[45] = tested on: SN12C
[46] = tested on: SNB-19
[47] = tested on: SNB-75
[48] = tested on: SNB-78
[49] = tested on: SW-620
[50] = tested on: TK-10
[51] = tested on: U-251
[52] = tested on: UACC-257
[53] = tested on: UACC-62
[54] = tested on: UO-31
[55] = tested on: HOP-92
[56] = tested on: RXF 393
[57] = tested on: SF-539
[58] = tested on: SR

SMILES: O=c1cccccc1NCCCCCCNc1cccccc1=O
- GI50 [1]: > 100 µM (inactive)
- GI50 [2]: > 100 µM (inactive)
- GI50 [3]: > 100 µM (inactive)
- GI50 [4]: > 100 µM (inactive)
- GI50 [5]: > 100 µM (inactive)
- GI50 [6]: > 100 µM (inactive)
- GI50 [7]: > 100 µM (inactive)
- GI50 [8]: > 100 µM (inactive)
- GI50 [9]: > 100 µM (inactive)
- GI50 [10]: > 100 µM (inactive)
- GI50 [11]: > 100 µM (inactive)
- GI50 [12]: > 100 µM (inactive)
- GI50 [13]: > 100 µM (inactive)
- GI50 [14]: > 100 µM
- GI50 [15]: > 100 µM (inactive)
- GI50 [16]: > 100 µM (inactive)
- GI50 [17]: > 100 µM (inactive)
- GI50 [18]: > 100 µM (inactive)
- GI50 [19]: > 100 µM (inactive)
- GI50 [20]: > 100 µM (inactive)
- GI50 [21]: > 100 µM (inactive)
- GI50 [22]: > 100 µM (inactive)
- GI50 [23]: > 100 µM (inactive)
- GI50 [24]: > 100 µM (inactive)
- GI50 [25]: > 100 µM (inactive)
- GI50 [26]: > 100 µM (inactive)
- GI50 [27]: > 100 µM (inactive)
- GI50 [28]: > 100 µM (inactive)
- GI50 [29]: > 100 µM (inactive)
- GI50 [30]: > 100 µM (inactive)
- GI50 [31]: > 100 µM (inactive)
- GI50 [32]: > 100 µM (inactive)
- GI50 [33]: > 100 µM (inactive)
- GI50 [34]: > 100 µM (inactive)
- GI50 [35]: > 100 µM (inactive)
- GI50 [36]: > 100 µM (inactive)
- GI50 [37]: > 100 µM (inactive)
- GI50 [38]: > 100 µM (inactive)
- GI50 [39]: > 100 µM (inactive)
- GI50 [40]: > 100 µM (inactive)
- GI50 [41]: > 100 µM (inactive)
- GI50 [42]: > 100 µM (inactive)
- GI50 [43]: > 100 µM (inactive)
- GI50 [44]: > 100 µM (inactive)
- GI50 [45]: > 100 µM (inactive)
- GI50 [46]: > 100 µM (inactive)
- GI50 [47]: 57.7 µM (inactive)
- GI50 [48]: > 100 µM (inactive)
- GI50 [49]: > 100 µM (inactive)
- GI50 [50]: > 100 µM (inactive)
- GI50 [51]: > 100 µM (inactive)
- GI50 [52]: > 100 µM (inactive)
- GI50 [53]: > 100 µM (inactive)
- GI50 [54]: > 100 µM (inactive)

SMILES: CCOC(=O)/C(=C\c1cccs1)P(=O)(OCC)OCC
- GI50 [1]: 21.9 µM (inactive)
- GI50 [3]: 21 µM (inactive)
- GI50 [4]: 17.6 µM (inactive)
- GI50 [5]: 18.2 µM (inactive)
- GI50 [6]: 29.9 µM (inactive)
- GI50 [7]: 16 µM (inactive)
- GI50 [8]: 21.2 µM (inactive)
- GI50 [9]: 21.5 µM (inactive)
- GI50 [10]: 34.6 µM (inactive)
- GI50 [11]: 23.8 µM (inactive)
- GI50 [12]: 18.4 µM (inactive)
- GI50 [13]: 19.2 µM (inactive)
- GI50 [14]: 17.5 µM
- GI50 [15]: 13.9 µM (inactive)
- GI50 [16]: 31.3 µM (inactive)
- GI50 [17]: 48.2 µM (inactive)
- GI50 [55]: 27.6 µM (inactive)
- GI50 [18]: 20.6 µM (inactive)
- GI50 [20]: 29.9 µM (inactive)
- GI50 [21]: 21.9 µM (inactive)
- GI50 [22]: 17.1 µM (inactive)
- GI50 [23]: 15.7 µM (inactive)
- GI50 [24]: 18.6 µM (inactive)
- GI50 [25]: 16.1 µM (inactive)
- GI50 [26]: 21.5 µM (inactive)
- GI50 [27]: 25.8 µM (inactive)
- GI50 [28]: 22.7 µM (inactive)
- GI50 [29]: 18.7 µM (inactive)
- GI50 [30]: 18.9 µM (inactive)
- GI50 [31]: 20.1 µM (inactive)
- GI50 [32]: 14.2 µM (inactive)
- GI50 [33]: 19.8 µM (inactive)
- GI50 [34]: 19 µM (inactive)
- GI50 [35]: 21.9 µM (inactive)
- GI50 [36]: 25.4 µM (inactive)
- GI50 [37]: 20.4 µM (inactive)
- GI50 [56]: 15.1 µM (inactive)
- GI50 [38]: 55.8 µM (inactive)
- GI50 [39]: 24.1 µM (inactive)
- GI50 [40]: 29.4 µM (inactive)
- GI50 [57]: 20.8 µM (inactive)
- GI50 [41]: 17.2 µM (inactive)
- GI50 [42]: 16.4 µM (inactive)
- GI50 [43]: 17 µM (inactive)
- GI50 [44]: 38.9 µM (inactive)
- GI50 [45]: 19.7 µM (inactive)
- GI50 [46]: 53.2 µM (inactive)
- GI50 [47]: 35.6 µM (inactive)
- GI50 [48]: 49.3 µM (inactive)
- GI50 [58]: 19.1 µM (inactive)
- GI50 [49]: 20 µM (inactive)
- GI50 [50]: 36.6 µM (inactive)
- GI50 [51]: 20.2 µM (inactive)
- GI50 [52]: 23.2 µM (inactive)
- GI50 [53]: 16.4 µM (inactive)
- GI50 [54]: 19.7 µM (inactive)
